# Reference: PubChem BioAssay (NCI)
#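 Cultured in 96-well plates, cells were exposed to test compound for 48 hours across five concentrations. Abbreviation: GI50, concentration required for 50% inhibition of growth. TGI: concentration producing complete growth inhibition.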
# Experiments:
# Test in all cases: NCI tumour cell line growth inhibition, 48 h
# NCI-H522 lung = tested on: NCI-H522 lung
# SK-MEL-5 melanoma = tested on: SK-MEL-5 melanoma
# SNB-75 CNS = tested on: SNB-75 CNS
# SNB-19 CNS = tested on: SNB-19 CNS
# COLO 205 colon = tested on: COLO 205 colon
# HL-60(TB) leukemia = tested on: HL-60(TB) leukemia
# MCF7 breast = tested on: MCF7 breast
# LOX IMVI melanoma = tested on: LOX IMVI melanoma
# KM12 colon = tested on: KM12 colon
# UO-31 renal = tested on: UO-31 renal
# A549 NSCLC = tested on: A549 NSCLC
# SF-539 CNS = tested on: SF-539 CNS
# RPMI-8226 leukemia = tested on: RPMI-8226 leukemia
# SR leukemia = tested on: SR leukemia
# TK-10 renal = tested on: TK-10 renal
# NCI-H226 lung = tested on: NCI-H226 lung
# OVCAR-5 ovarian = tested on: OVCAR-5 ovarian
# MOLT-4 leukemia = tested on: MOLT-4 leukemia
# NCI-H23 lung = tested on: NCI-H23 lung
# MDA-MB-435 = tested on: MDA-MB-435
# SK-MEL-2 melanoma = tested on: SK-MEL-2 melanoma
# HCT-116 colon = tested on: HCT-116 colon
# M14 melanoma = tested on: M14 melanoma
# NCI/ADR-RES ovarian = tested on: NCI/ADR-RES ovarian
# SW-620 colon = tested on: SW-620 colon
# SK-MEL-28 melanoma = tested on: SK-MEL-28 melanoma
# SN12C renal = tested on: SN12C renal
# OVCAR-4 ovarian = tested on: OVCAR-4 ovarian
# IGROV1 ovarian = tested on: IGROV1 ovarian
# BT-549 breast = tested on: BT-549 breast
# DU-145 prostate = tested on: DU-145 prostate
# OVCAR-3 ovarian = tested on: OVCAR-3 ovarian
# K-562 leukemia = tested on: K-562 leukemia
# ACHN renal = tested on: ACHN renal
# RXF 393 renal = tested on: RXF 393 renal
# UACC-257 melanoma = tested on: UACC-257 melanoma
# MDA-MB-231 breast = tested on: MDA-MB-231 breast
# HOP-62 NSCLC = tested on: HOP-62 NSCLC
# MDA-MB-468 breast = tested on: MDA-MB-468 breast
# OVCAR-8 ovarian = tested on: OVCAR-8 ovarian
# HT29 colon = tested on: HT29 colon
# HOP-92 NSCLC = tested on: HOP-92 NSCLC
# PC-3 prostate = tested on: PC-3 prostate
# SF-268 CNS = tested on: SF-268 CNS
# HCT-15 colon = tested on: HCT-15 colon
# A498 renal = tested on: A498 renal
# UACC-62 melanoma = tested on: UACC-62 melanoma
# CCRF-CEM leukemia = tested on: CCRF-CEM leukemia
# HCC-2998 colon = tested on: HCC-2998 colon
# 786-0 renal = tested on: 786-0 renal
# T-47D breast = tested on: T-47D breast
# U251 CNS = tested on: U251 CNS
# CAKI-1 renal = tested on: CAKI-1 renal
# SK-OV-3 ovarian = tested on: SK-OV-3 ovarian
# MALME-3M melanoma = tested on: MALME-3M melanoma
# HS 578T breast = tested on: HS 578T breast
# EKVX NSCLC = tested on: EKVX NSCLC
# SF-295 CNS = tested on: SF-295 CNS
# NCI-H460 lung = tested on: NCI-H460 lung
smiles,measurement,setting,value
CCN1C(=O)N(CC)C2NNC(Sc3c(C(=O)O)c4ccccc4n(C4CCCC4)c3=O)=NC21 (stereo not drawn),GI50,NCI-H522 lung,1.54 µM
same,TGI,NCI-H522 lung,3.74 µM
same,GI50,SK-MEL-5 melanoma,3.49 µM
same,TGI,SK-MEL-5 melanoma,13.6 µM
same,GI50,SNB-75 CNS,1.51 µM
same,TGI,SNB-75 CNS,11.8 µM
same,GI50,SNB-19 CNS,4.59 µM
same,TGI,SNB-19 CNS,57.3 µM
same,GI50,COLO 205 colon,2.04 µM
same,TGI,COLO 205 colon,4.16 µM
same,GI50,HL-60(TB) leukemia,2.35 µM
same,TGI,HL-60(TB) leukemia,6.86 µM
same,GI50,MCF7 breast,2.07 µM
same,TGI,MCF7 breast,13.3 µM
same,GI50,LOX IMVI melanoma,3.87 µM
same,TGI,LOX IMVI melanoma,16.2 µM
same,GI50,KM12 colon,3.3 µM
same,TGI,KM12 colon,16.9 µM
same,GI50,UO-31 renal,4.38 µM
same,TGI,UO-31 renal,22.9 µM
same,GI50,A549 NSCLC,4.04 µM
same,TGI,A549 NSCLC,17.8 µM
same,GI50,SF-539 CNS,2.14 µM
same,TGI,SF-539 CNS,5.51 µM
same,GI50,RPMI-8226 leukemia,4.17 µM
same,TGI,RPMI-8226 leukemia,25.9 µM
same,GI50,SR leukemia,3.4 µM
same,TGI,SR leukemia,35.7 µM
same,GI50,TK-10 renal,10.3 µM
same,TGI,TK-10 renal,31.3 µM
same,GI50,NCI-H226 lung,4.34 µM
same,TGI,NCI-H226 lung,17.7 µM
same,GI50,OVCAR-5 ovarian,4.09 µM
same,TGI,OVCAR-5 ovarian,22.1 µM
same,GI50,MOLT-4 leukemia,3.88 µM
same,TGI,MOLT-4 leukemia,50.3 µM
same,GI50,NCI-H23 lung,3.44 µM
same,TGI,NCI-H23 lung,15.4 µM
same,GI50,MDA-MB-435,1.47 µM
same,TGI,MDA-MB-435,3.85 µM
same,GI50,SK-MEL-2 melanoma,4.15 µM
same,TGI,SK-MEL-2 melanoma,19.4 µM
same,GI50,HCT-116 colon,3.09 µM
same,TGI,HCT-116 colon,11.2 µM
same,GI50,M14 melanoma,3.28 µM
same,TGI,M14 melanoma,13.3 µM
same,GI50,NCI/ADR-RES ovarian,1.92 µM
same,TGI,NCI/ADR-RES ovarian,4.42 µM
same,GI50,SW-620 colon,3.3 µM
same,TGI,SW-620 colon,17.1 µM
same,GI50,SK-MEL-28 melanoma,6.95 µM
same,TGI,SK-MEL-28 melanoma,25.7 µM
same,GI50,SN12C renal,3.41 µM
same,TGI,SN12C renal,16.1 µM
same,GI50,OVCAR-4 ovarian,6.15 µM
same,TGI,OVCAR-4 ovarian,45 µM
same,GI50,IGROV1 ovarian,4.41 µM
same,TGI,IGROV1 ovarian,29.4 µM
same,GI50,BT-549 breast,9.6 µM
same,TGI,BT-549 breast,24.4 µM
same,GI50,DU-145 prostate,3.91 µM
same,TGI,DU-145 prostate,18.3 µM
same,GI50,OVCAR-3 ovarian,3.21 µM
same,TGI,OVCAR-3 ovarian,12.8 µM
same,GI50,K-562 leukemia,3.13 µM
same,TGI,K-562 leukemia,> 100 µM
same,GI50,ACHN renal,4.36 µM
same,TGI,ACHN renal,16.3 µM
same,GI50,RXF 393 renal,2.85 µM
same,TGI,RXF 393 renal,11.9 µM
same,GI50,UACC-257 melanoma,7.65 µM
same,TGI,UACC-257 melanoma,28.2 µM
same,GI50,MDA-MB-231 breast,3.03 µM
same,TGI,MDA-MB-231 breast,11.5 µM
same,GI50,HOP-62 NSCLC,5.75 µM
same,TGI,HOP-62 NSCLC,37.2 µM
same,GI50,MDA-MB-468 breast,2.02 µM
same,TGI,MDA-MB-468 breast,6.05 µM
same,GI50,OVCAR-8 ovarian,3.28 µM
same,TGI,OVCAR-8 ovarian,12.7 µM
same,GI50,HT29 colon,3.13 µM
same,TGI,HT29 colon,10.5 µM
same,GI50,HOP-92 NSCLC,10.3 µM
same,TGI,HOP-92 NSCLC,35 µM
same,GI50,PC-3 prostate,4.06 µM
same,TGI,PC-3 prostate,33.6 µM
same,GI50,SF-268 CNS,4.47 µM
same,TGI,SF-268 CNS,45.4 µM
same,GI50,HCT-15 colon,2.85 µM
same,TGI,HCT-15 colon,11.2 µM
same,GI50,A498 renal,14.8 µM
same,TGI,A498 renal,42.8 µM
same,GI50,UACC-62 melanoma,3.05 µM
same,TGI,UACC-62 melanoma,16.3 µM
same,GI50,CCRF-CEM leukemia,3.45 µM
same,TGI,CCRF-CEM leukemia,38.3 µM
same,GI50,HCC-2998 colon,2.84 µM
same,TGI,HCC-2998 colon,9.8 µM
same,GI50,786-0 renal,4.36 µM
same,TGI,786-0 renal,19.4 µM
same,GI50,T-47D breast,7.2 µM
same,TGI,T-47D breast,72.7 µM
same,GI50,U251 CNS,3.66 µM
same,TGI,U251 CNS,15.3 µM
same,GI50,CAKI-1 renal,3.97 µM
same,TGI,CAKI-1 renal,16.5 µM
same,GI50,SK-OV-3 ovarian,3.35 µM
same,TGI,SK-OV-3 ovarian,20.8 µM
same,GI50,MALME-3M melanoma,7.36 µM
same,TGI,MALME-3M melanoma,25.6 µM
same,GI50,HS 578T breast,2.21 µM
same,TGI,HS 578T breast,8.88 µM
same,GI50,EKVX NSCLC,4.69 µM
same,TGI,EKVX NSCLC,27.4 µM
same,GI50,SF-295 CNS,2.41 µM
same,TGI,SF-295 CNS,7.88 µM
same,GI50,NCI-H460 lung,2.6 µM
same,TGI,NCI-H460 lung,10.7 µM
